Consider seven molecules from US20060217340A1, “Methods and products for treating hypertension by modulation of TRPC3 channel activity” (University of Vermont and State Agricultural College, priority 2005, published 2006).

One data set has as its system cerebral artery SMCs. Briefly: Membrane potential recordings in pressurized cerebral arteries. The data set is classed as cell-based, rat. The text has this: (§1) Oligodeoxynucleotide Sequences and Reverse Permeabilization. TRPC6 sense and antisense oligodeoxynucleotides (ODN's) were designed as previously described (Welsh et al 2002 Circ Res 90, 248-250) and were as follows: sense, 5′-[…]-3′ (SEQ ID: 3) and 5′-GCACACGCAGCCTCTTCAC-3′ (SEQ ID: 4) antisense, 5′-[…]-3′ (SEQ ID: 5) and 5′-[…]-3′ (SEQ ID: 6). TRPC3 sense and antisense ODN's were designed based on the rat TRPC3 gene (Ohki et al 2000 J Biol Chem 275: 39055-39060) and are as follows: sense, 5′-[…]-3′ (SEQ ID: 7) and 5′-[…]-3′ (SEQ ID: 8); anti-sense, 5′-[…]-3′ (SEQ ID: 9) and 5′-[…]-3′ (SEQ ID: 10). The last five bases on the 5′ and 3′ end were phosphorothioated in order to limit ODN degradation. For some experiments fluoroscein-isothiocyanate was conjugated to the 5′ end to allow for histological assessment of cellular uptake of the ODNs. All ODNs were synthesized and HPLC purified commercially by Qiagen (Alameda, Calif., USA). Sense and antisense ODN's (2 μM) were introduced into the arterial SMs using a reversible permeabilization procedure (Lesh et al 1995 Circ Res 77,220-230)). The arterial segments were then organ cultured for 3 days in D-MEM/F-12 culture media with L-glutamine (2 mM), penicillin (50 units/ml) and streptomycin (50 μg/ml) prior to use.
(§2) Diameter and membrane potential recordings. Endothelial cell denuded artery segments were mounted on glass pipettes in an arteriograph chamber (Living Systems, Burlington, Vt., USA), pressurized to 20 mmHg (with no flow), and superfused with warm (37° C.), gassed (95% 02/5% CO2) physiological saline solution (PSS) containing (in mM): 119 NaCl, 4.7 KCl, 24 NaHCO3, 0.2 KH2PO4, […], 1.2 MgSO4, 1.6 CaCl2, and 10.6 glucose, pH 7.4. In experiments using Ca^2+-free PSS, CaCl2 was omitted and 3 mM EGTA and 30 μM diltiazem added. In experiments with diacylglycerol induction, 300 μM of the diacylglycerol analogue OAG (1-oleyol-2-acetyl-sn-glycerol) was added. The endothelium was removed as previously described (Sun et al 1993 Endothelium 1, 115-122). To verify endothelial cell removal the arteries were pressurized to 60 mmHg and allowed to develop myogenic tone prior to exposing the vessels to 1 μM UTP. Absence of a dilation or biphasic constrictor response to 1 μM UTP indicated successful endothelial cell removal (Marelli 2001 Am J Physiol Heart Cir Physiol 281, H1759-H1766; Miyagi et al 1996 Br J Pharmacol 118, 847-856). Arterial diameter or membrane potential (Vm) of sense and anti-sense treated arteries was measured in the absence (control) or presence of UTP (concentration range: 0.1 to 10 μM). Membrane potential was measured by inserting a sharp glass electrode (≈100 MΩ resistance) containing 0.5M KCl into the vessel wall. The criteria for successful vascular smooth muscle cell impalement were: (1) a sharp negative Vm deflection on entry; (2) a stable potential for at least 1 minute after entry; and (3) a sharp positive Vm deflection upon removal. Measurements were made using an electrometer (World Precision Instruments) and the data were recorded via computer using Axotape and Dataq software. Arterial diameter was measured using a video dimension analyzer (IonOptix Corporation; Milton, Mass.).

Data set [1] deals with pressurized rat cerebral arteries. As to the kind of experiment: Arterial diameter recordings (constriction) in pressurized cerebral arteries. The data set is classed as cell-based.
Source text: as §1
as §2, with “Arterial diameter or membrane potential (Vm) of sense and anti-sense treated arteries was measured in the absence (control) or presence of UTP (concentration range: 0.1 to 10 μM).” left out
Statistical analysis. Data are expressed as means±SEM, and n indicates the number of animals. Changes in arterial diameter were measured as a percent constriction calculated as follows: [formula]

Data set [2] has the same test system. As to the kind of experiment: Arterial wall Ca2+ concentration measurement (FURA-2) in isolated arteries. The note with it: for effect on arterial wall Ca2+ or vessel diameter: absence of extracellular Ca2+. It is filed as cell-based. The protocol: Diameter and membrane potential recordings. […] In experiments using Ca^2+-free PSS, CaCl2 was omitted and 3 mM EGTA and 30 μM diltiazem added. In experiments with diacylglycerol induction, 300 μM of the diacylglycerol analogue OAG (1-oleyol-2-acetyl-sn-glycerol) was added. […] To verify endothelial cell removal the arteries were pressurized to 60 mmHg and allowed to develop myogenic tone prior to exposing the vessels to 1 μM UTP. […] Arterial diameter or membrane potential (Vm) of sense and anti-sense treated arteries was measured in the absence (control) or presence of UTP (concentration range: 0.1 to 10 μM). Membrane potential was measured by inserting a sharp glass electrode (≈100 MΩ resistance) containing 0.5M KCl into the vessel wall. […] Measurements were made using an electrometer (World Precision Instruments) and the data were recorded via computer using Axotape and Dataq software. Arterial diameter was measured using a video dimension analyzer (IonOptix Corporation; Milton, Mass.).
Ca^2+ concentration measurement in isolated arteries. Mounted arteries were equilibrated in 1.6 m M PSS for 40 minutes at 37° C. (pH 7.4) prior to loading the vascular smooth muscle cells with the Ca^2+-sensitive fluorescent dye, FURA-2. To load the cells, the 1.6 mM PSS was gradually replaced over 5 minutes with HEPES solution (25° C., pH 7.4). A total of 40 μL of a premixed 100 μM FURA-2-acetoxymethyl ester solution (100 μg FURA-2, 200 μL Pluronic acid, 800 μL DMSO) was added directly to the HEPES to give a final concentration of 2 μM FURA-2 AM. Loading continued in the dark at 25° C. (pH 7.4) for 40 minutes. At the end of the loading period, the HEPES was replaced with 1.6 mM PSS (35° C., pH 7.4) and 30 minutes was allowed for complete de-esterification of the FURA-2 AM before [Ca^2+]c measurements were made. FURA-2 fluorescence was measured using a photomultiplier system (IonOptix Corporation; Milton, Mass., USA) in which background-corrected ratios of the 510-nm emission from arteries alternatively excited at 340 and 380 nm were obtained at a sampling rate of 5 Hz.

The mark [3] stands for this setting: Gd3+ given prior to re-introduction of extracellular Ca2+.
The mark [4] stands for this setting: OAG, Sprague Dawley, WKY and SHR rats.
The mark [5] stands for this setting: 30 μM UTP in PSS, first exposure.
Where [6] appears, read: in the presence of UTP, steady state.
[7] abbreviates: 1 μM nimodipine, extracellular Ca2+ re-introduced in the presence of UTP.
Setting [8] is: 2 μM thapsigargin, presence of UTP, n=3.

As to “5′-GGAGTTCAGACTGGCTAGGG-3′ (SEQ ID: 5) and 5′-GCACACGCAGCCTCCTTCAC-3′ (SEQ ID: 6) (DNA, backbone not given here; further chemistry not fully specified) [TRPC6 antisense, TRPC6 antisense oligodeoxynucleotides designed as previously described (Welsh et al 2002)]”, in the data set on cerebral artery SMCs (exposure to UTP), the “UTP-induced depolarization, TRPC6 antisense- versus sense-treated group” value is recorded as “no difference”. Moreover, the magnitude of constriction result in data set [1] (increasing concentrations of UTP) is “did not affect”.

Consider `[Gd+3]` [Gd^3+], for which the “effect on increase in arterial wall Ca2+ after Ca2+ return in the presence of UTP” value in data set [2] (30 μM Gd3+, nimodipine present) is recorded as “reverses”. For the same molecule, in data set [2] (setting [3]), the “arterial wall Ca2+ response to UTP” value is “did not increase”. For the same molecule, the “effect on vasoconstriction after Ca2+ return in the presence of UTP” value in data set [1] (30 μM Gd3+, nimodipine present) is recorded as “reverses”. Besides, the “vasoconstriction in response to UTP” value in data set [1] (setting [3]) is reported as “nor did vasoconstriction occur”.

As to `CCCCCCCC/C=C\CCCCCCCC(=O)OC[C@H](CO)OC(C)=O` [OAG, 1-oleoyl-2-acetyl-sn-glycerol], the “increase in calcium concentration, arteries from SHR compared with normotensive rats” value in data set [2] (setting [4]) is recorded as “significantly larger increases”. Also, in data set [1] (setting [4]), the “constriction of arteries from SHR compared with normotensive rats” value is reported as “significantly larger increases”.

As to `O=c1ccn([C@@H]2O[C@H](COP(=O)(O)OP(=O)(O)OP(=O)(O)O)[C@@H](O)[C@H]2O)c(=O)[nH]1` [UTP, uridine triphosphate], the “depolarization of arterial SMCs” value in the data set with cerebral artery SMCs (micromolar concentrations of UTP) is on record as “approximately 20 mV”. Further, in data set [2] (30 μM UTP in PSS containing Ca2+, n=8), the “initial peak increase in arterial wall Ca2+” value was found to be 291 ± 45 nM. For the same molecule, the “steady state arterial wall [Ca2+]” value in data set [2] (setting [5]) was determined as 145 ± 10 nM. Besides, the “effect on arterial wall Ca2+ or vessel diameter” value in data set [2] is “neither UTP (FIG. 11 and FIG. 12) nor caffeine (FIG. 11A) affected”. For the same molecule, the “arterial wall [Ca2+] in Ca2+ free PSS” value in data set [2] (continued presence of UTP) is on record as “decline below the resting level”. Moreover, in data set [2] (setting [6]), the “arterial wall Ca2+ after returning extracellular Ca2+” value was 139 ± 15 nM. Also, the “sustained decrease in lumen diameter” value in data set [1] (setting [5]) was 49±4%. Also, the “vessel response in Ca2+ free PSS” value in data set [1] (continued presence of UTP) is listed as “completely relax”. In data set [1] (setting [6]), the “decrease in lumen diameter (vasoconstriction) after returning extracellular Ca2+” value was determined as 48±5%.

`Cn1c(=O)c2c(ncn2C)n(C)c1=O` [caffeine]: the “peak [Ca2+]c” value in data set [2] (10 mM caffeine, PSS containing Ca2+) amounted to 227 ± 42 nM. Moreover, the “effect on arterial wall Ca2+ or vessel diameter” value in data set [2] is “neither UTP (FIG. 11 and FIG. 12) nor caffeine (FIG. 11A) affected”. Moreover, the “% constriction” value in data set [1] (10 mM caffeine, PSS containing Ca2+, transient) came out at 31±6%.

As to `COCCOC(=O)C1=C(C)NC(C)=C(C(=O)OC(C)C)C1c1cccc([N+](=O)[O-])c1` (stereo not shown) [nimodipine], the “UTP-induced increase in arterial wall Ca2+” value in data set [2] (setting [7]) turned out to be 94 ± 10 nM. The “share of extracellular Ca2+ influx entering through the L-type Ca2+ channel” value in data set [2] (re-admission of Ca2+ in the presence of UTP) is listed as “about 30%”. In data set [1] (setting [7]), the UTP-induced vasoconstriction is listed as 29±3%.

Take `C/C=C(/C)C(=O)O[C@H]1C(C)=C2[C@H]([C@@H]1OC(=O)CCCCCCC)[C@@](C)(OC(C)=O)C[C@H](OC(=O)CCC)[C@@]1(O)[C@H]2OC(=O)[C@@]1(C)O` [thapsigargin]: the “arterial wall Ca2+ when extracellular Ca2+ reintroduced” value in data set [2] (setting [8]) amounted to 116 ± 29 nM. In addition, in data set [1] (setting [8]), the “diameter decrease when extracellular Ca2+ reintroduced” value is listed as 39±6%.
